GI50 data for 20 compounds are collected here from patent publication US20250388605A1, “HETEROBIFUNCTIONAL COMPOUNDS AND METHODS OF TREATING DISEASE” (Halda Therapeutics OpCo, Inc., priority 2022, published 2025).

The test system of assay [1] is T-Rex 293 cell line SC3 cells having increased expression of androgen receptor protein due to exposure to doxycycline. Nature of the assay: Cellular growth inhibition, T-Rex 293 SC3 cells with doxycycline (increased androgen receptor expression), CellTiter-Glo. Type of assay: cell-based. The note with it: T-Rex 293 SC3 cells with 10 ng/mL doxycycline (increased androgen receptor expression), 72 hours, CellTiter-Glo 2.0. An outline of the steps: (§1)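 Doxycycline (10 ng/mL) was either included or omitted to toggle wild-type androgen receptor expression in SC3 cells, a T-Rex 293 clone, grown in stripped-serum, phenol red-free medium. After 72 hours with compound, viable cells were quantified by CellTiter-Glo 2.0.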
A general note: In ATP-based viability assays light output follows the ATP content of the culture.

In assay [2] the test system is T-Rex 293 cell line SC3 cells lacking increased expression of androgen receptor protein. Nature of the assay: Cellular growth inhibition, T-Rex 293 SC3 cells without doxycycline (no increased androgen receptor expression), CellTiter-Glo. Type of assay: cell-based. The following applies: T-Rex 293 SC3 cells not exposed to doxycycline (no increased androgen receptor expression), 72 hours. The gist of the method: as §1

In a further assay the test system is VCaP cells. Nature of the assay: Cellular growth inhibition assay for VCaP cells, CellTiter-Glo. Type of assay: cell-based, human. The note with it: 72 hours. An outline of the steps: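 GI50 values come from four-parameter curve fits of luminescence data normalized to a zero baseline. Compound, in medium with 0.5% DMSO, was added one day after plating and left for 72 h before CellTiter-Glo 2.0 addition.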

The next assay relates to T47D cells. Nature of the assay: Cellular Growth Inhibition Assay for T47D Cells (CellTiter-Glo). Type of assay: cell-based, human. The following applies: 72 hours. The gist of the method:
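GI50 values derive from four-parameter regression of CellTiter-Glo 2.0 luminescence, using zero luminescence as baseline. Human breast cancer T47D cells (3000/well; DMEM, 10% FBS, 0.2 units/mL insulin) were exposed for 72 h to compound dilutions at 0.5% DMSO, with dosing starting 24 h after seeding.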

Take `Cn1cc(-c2cc(C(C)(C)O)ccc2OC(CCCCCN2CCN(c3ncc(C(=O)NC4C(C)(C)C(Oc5ccc(C#N)c(Cl)c5)C4(C)C)cn3)CC2)C2CC2)c2cc[nH]c2c1=O` (centres unmarked) [Compound I-243, N-[3-(3-chloro-4-cyano-phenoxy)-2,2,4,4-tetramethyl-cyclobutyl]-2-[4-[6-cyclopropyl-6-[4-(1-hydroxy-1-methyl-ethyl)-2-(6-methyl-7-oxo-1H-pyrrolo[2,3-c]pyridin-4-yl)phenoxy]hexyl]piperazin-1-yl]pyrimidine-5-carboxamide]: the GI50 (as a rule, the concentration giving 50% growth inhibition) in assay [1] is less than 500 nM; in assay [2], 500 to 1500 nM; with VCaP cells (Homo sapiens), less than 500 nM; in the assay on T47D cells (Homo sapiens), 500 to 1500 nM.
Regarding `Cn1cc(-c2cc(C(C)(C)O)ccc2OC(CCCOC2CCN(c3ncc(C(=O)N[C@H]4C(C)(C)[C@H](Oc5ccc(C#N)c(Cl)c5)C4(C)C)cn3)CC2)C2CC2)c2cc[nH]c2c1=O` (some centres unmarked) [Compound I-244], the GI50 in assay [1] was less than 500 nM; in assay [2], 500 to 1500 nM; with VCaP cells, less than 500 nM; in the assay with T47D cells, 500 to 1500 nM.
Take `Cn1cc(-c2cc(C(C)(C)O)ccc2Oc2ccc(C3(NC4CCN(c5ncc(C(=O)N[C@H]6C(C)(C)[C@H](Oc7ccc(C#N)c(Cl)c7)C6(C)C)cn5)CC4)COC3)cc2)c2cc[nH]c2c1=O` [Compound I-246]: the 50% growth inhibitory concentration (GI50) in assay [1] was less than 500 nM; in assay [2] it was less than 500 nM; in the assay on VCaP cells it was less than 500 nM; in the assay on T47D cells, 500 to 1500 nM.
`Cn1cc(-c2cc(S(C)(=O)=O)ccc2Oc2cccc(CCCC3CCN(c4ncc(C(=O)NC5C(C)(C)C(Oc6ccc(C#N)c(Cl)c6)C5(C)C)cn4)CC3)c2)c2cc[nH]c2c1=O` (centres unmarked) [Compound I-249, N-[3-(3-chloro-4-cyano-phenoxy)-2,2,4,4-tetramethyl-cyclobutyl]-2-[4-[3-[3-[2-(6-methyl-7-oxo-1H-pyrrolo[2,3-c]pyridin-4-yl)-4-methyl-sulfonyl-phenoxy]phenyl]propyl]-1-piperidyl]pyrimidine-5-carboxamide]: the GI50 in assay [1] is less than 500 nM; in assay [2], more than 3000 nM; in the assay with VCaP cells (Homo sapiens), 500 to 1500 nM; in the assay on T47D cells (Homo sapiens) it was 500 to 1500 nM.
On to `Cn1cc(-c2cc(S(C)(=O)=O)ccc2Oc2cccc(CCCC3CCN(c4ncc(C(=O)N[C@H]5C(C)(C)[C@H](Oc6ccc(C#N)c(Cl)c6)C5(C)C)cn4)CC3)c2F)c2cc[nH]c2c1=O` [Compound I-250], for which the GI50 in assay [1] was less than 500 nM; in assay [2] it was more than 3000 nM; in the assay with VCaP cells it was 500 to 1500 nM; with T47D cells it was less than 500 nM.
`Cn1cc(-c2cc(C(C)(C)O)ccc2OC(CCCCOC2CCN(c3ncc(C(=O)N[C@H]4C(C)(C)[C@H](Oc5ccc(C#N)c(Cl)c5)C4(C)C)cn3)CC2)C2CC2)c2cc[nH]c2c1=O` (some centres unmarked) [Compound I-251]: the GI50 in assay [1] was less than 500 nM; in assay [2], 500 to 1500 nM; in the assay with VCaP cells it was 500 to 1500 nM; with T47D cells, 500 to 1500 nM.
Take `CCS(=O)(=O)Cc1ccc(Oc2cccc(OCCCC3CCN(c4ncc(C(=O)N[C@H]5C(C)(C)[C@H](Oc6ccc(C#N)c(Cl)c6)C5(C)C)cn4)CC3)c2)c(-c2cn(C)c(=O)c3[nH]ccc23)c1` [Compound I-257]: the GI50 (in assay [1]; in assay [2]; in the assay with VCaP cells (Homo sapiens); in the assay with T47D cells (Homo sapiens)) was less than 500 nM each time.
As for `Cn1cc(-c2cc(C(C)(C)O)ccc2Oc2cccc(N3CC(CN4C5CCC4CC(c4ncc(C(=O)N[C@H]6C(C)(C)[C@H](Oc7ccc(C#N)c(Cl)c7)C6(C)C)cn4)C5)C3)c2F)c2cc[nH]c2c1=O` (some centres unmarked) [Compound I-258], the 50% growth inhibitory concentration (GI50) was less than 500 nM in assay [1], 500 to 1500 nM in assay [2], less than 500 nM with VCaP cells (Homo sapiens) and less than 500 nM in the assay with T47D cells (Homo sapiens).
Consider `Cn1cc(-c2cc(C(C)(C)O)ccc2Oc2ccc(CCN3CC4(C3)CN(c3ncc(C(=O)N[C@H]5C(C)(C)[C@H](Oc6ccc(C#N)c(Cl)c6)C5(C)C)cn3)C4)cc2)c2cc[nH]c2c1=O` [Compound I-259], for which the GI50 is less than 500 nM in assay [1], 500 to 1500 nM in assay [2], less than 500 nM in the assay on VCaP cells and less than 500 nM in the assay with T47D cells.
Consider `CCS(=O)(=O)c1ccc(Oc2ccc(CN3CC4(C3)CN(c3ncc(C(=O)N[C@H]5C(C)(C)[C@H](Oc6ccc(C#N)c(Cl)c6)C5(C)C)cn3)CCO4)cc2)c(-c2cn(C)c(=O)c3[nH]ccc23)c1` [Compound I-261], for which the 50% growth inhibitory concentration (GI50) (in assay [1]; in assay [2]; in the assay on VCaP cells; with T47D cells) was less than 500 nM throughout.
Turning to `CCS(=O)(=O)c1ccc(Oc2ccc(CCN3CC4(C3)CN(c3ncc(C(=O)N[C@H]5C(C)(C)[C@H](Oc6ccc(C#N)c(Cl)c6)C5(C)C)cn3)CCO4)cc2)c(-c2cn(C)c(=O)c3[nH]ccc23)c1` [Compound I-262], the GI50 (in assay [1]; in assay [2]; with VCaP cells; in the assay with T47D cells) was less than 500 nM throughout.
As to `CCS(=O)(=O)Cc1ccc(Oc2cccc(CCCCC3CCN(c4ncc(C(=O)N[C@H]5C(C)(C)[C@H](Oc6ccc(C#N)c(Cl)c6)C5(C)C)cn4)CC3)c2)c(-c2cn(C)c(=O)c3[nH]ccc23)c1` [Compound I-263], the GI50 in assay [1] was less than 500 nM; in assay [2] it was more than 3000 nM; in the assay with VCaP cells (Homo sapiens) it was less than 500 nM; with T47D cells (Homo sapiens) it was less than 500 nM.
For `CCS(=O)(=O)c1ccc(Oc2cccc(CCN3CC4(C3)CN(c3ncc(C(=O)N[C@H]5C(C)(C)[C@H](Oc6ccc(C#N)c(Cl)c6)C5(C)C)cn3)CCO4)c2F)c(-c2cn(C)c(=O)c3[nH]ccc23)c1` [Compound I-264], the 50% growth inhibitory concentration (GI50) (in assay [1]; in assay [2]; with VCaP cells (Homo sapiens); in the assay on T47D cells (Homo sapiens)) was less than 500 nM throughout.
On to `Cn1cc(-c2cc(C(C)(C)O)ccc2OCC(CCOC2CCN(c3ncc(C(=O)N[C@H]4C(C)(C)[C@H](Oc5ccc(C#N)c(Cl)c5)C4(C)C)cn3)CC2)C2CC2)c2cc[nH]c2c1=O` (some centres unmarked) [Compound I-265], for which the 50% growth inhibitory concentration (GI50) was less than 500 nM in assay [1], 500 to 1500 nM in assay [2], 500 to 1500 nM in the assay with VCaP cells and 1500 to 3000 nM in the assay with T47D cells.
For the compound `Cn1cc(-c2cc(C(C)(C)O)ccc2OC2CCC(N3CC(OC4CCN(c5ncc(C(=O)NC6C(C)(C)C(Oc7ccc(C#N)c(Cl)c7)C6(C)C)cn5)CC4)C3)C2)c2cc[nH]c2c1=O` (centres unmarked) [Compound I-266, N-[3-(3-chloro-4-cyano-phenoxy)-2,2,4,4-tetramethyl-cyclobutyl]-2-[4-[1-[3-[4-(1-hydroxy-1-methyl-ethyl)-2-(6-methyl-7-oxo-1H-pyrrolo[2,3-c]pyridin-4-yl)phenoxy]cyclopentyl]azetidin-3-yl]oxy-1-piperidyl]pyrimidine-5-carboxamide], the concentration for 50% growth inhibition (GI50) in assay [1] was less than 500 nM; in assay [2], 1500 to 3000 nM; in the assay on VCaP cells (Homo sapiens) it was less than 500 nM; with T47D cells (Homo sapiens), 500 to 1500 nM.
Take `Cn1cc(-c2cc(C(C)(C)O)ccc2OCC2(C(=O)N3CC(OC4CCN(c5ncc(C(=O)N[C@H]6C(C)(C)[C@H](Oc7ccc(C#N)c(Cl)c7)C6(C)C)cn5)CC4)C3)CC2)c2cc[nH]c2c1=O` [Compound I-267]: the GI50 was less than 500 nM in assay [1], 500 to 1500 nM in assay [2], less than 500 nM in the assay on VCaP cells and 500 to 1500 nM in the assay with T47D cells.
`CCS(=O)(=O)c1ccc(OC2CC(CCN3CCC4(CCN(c5ncc(C(=O)N[C@H]6C(C)(C)[C@H](Oc7ccc(C#N)c(Cl)c7)C6(C)C)cn5)C4)C3)C2)c(-c2cn(C)c(=O)c3[nH]ccc23)c1` (some centres unmarked) [Compound I-270, N-[3-(3-chloro-4-cyano-phenoxy)-2,2,4,4-tetramethyl-cyclobutyl]-2-[7-[2-[3-[4-ethylsulfonyl-2-(6-methyl-7-oxo-1H-pyrrolo[2,3-c]pyridin-4-yl)phenoxy]cyclobutyl]ethyl]-2,7-diazaspiro[4.4]nonan-2-yl]pyrimidine-5-carboxamide]: the GI50 in assay [1] was less than 500 nM; in assay [2], 500 to 1500 nM; with VCaP cells (Homo sapiens), less than 500 nM; in the assay on T47D cells (Homo sapiens) it was less than 500 nM.
For the compound `CCS(=O)(=O)c1ccc(Oc2ccc(CN3CC4(C3)CN(c3ncc(C(=O)N[C@H]5C(C)(C)[C@H](Oc6ccc(C#N)c(Cl)c6)C5(C)C)cn3)C4)c(F)c2)c(-c2cn(C)c(=O)c3[nH]ccc23)c1` [Compound I-271], the GI50 (in assay [1]; in assay [2]; in the assay with VCaP cells (Homo sapiens); with T47D cells (Homo sapiens)) was less than 500 nM throughout.
Regarding `CCS(=O)(=O)c1ccc(Oc2ccc(CN3CCC4(CCN(c5ncc(C(=O)N[C@H]6C(C)(C)[C@H](Oc7ccc(C#N)c(Cl)c7)C6(C)C)cn5)C4)C3)c(F)c2)c(-c2cn(C)c(=O)c3[nH]ccc23)c1` (some centres unmarked) [Compound I-272], the GI50 (in assay [1]; in assay [2]; with VCaP cells (Homo sapiens); in the assay with T47D cells (Homo sapiens)) was less than 500 nM throughout.
For `Cn1cc(-c2cc(C(C)(C)O)ccc2Oc2cccc(N3CC(CN4CCN(c5ncc(C(=O)N[C@H]6C(C)(C)[C@H](Oc7ccc(C#N)c(Cl)c7)C6(C)C)cn5)C5(CC5)C4)C3)c2F)c2cc[nH]c2c1=O` [Compound I-273], the GI50 in assay [1] is less than 500 nM; in assay [2], 500 to 1500 nM; in the assay with VCaP cells, less than 500 nM; with T47D cells, less than 500 nM.
